From paper PMC6100082, “Pyridine-Ureas as Potential Anticancer Agents: Synthesis and In Vitro Biological Evaluation” (Molecules : A Journal of Synthetic Chemistry and Natural …, 2018)
Like-named read-outs stand apart in the source and are kept apart here.

Experiments:
[1] = test system: RPMI-8226; assay: NCI one-dose SRB assay (Leukemia); assay type: cell-based, human; conditions: for Growth Percent: RPMI-8226, 1.00E-5 Molar; for inhibition at 10 µM: Homo sapiens, read-out: Percentage growth inhibition (GI%)
How it was run: (§1)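 Human cancer cells are exposed for 48 h to one dose (10^−5 M) of test compound, then cell growth is measured by SRB protein assay. Data appear as GI%.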

[2] = test system: HL-60(TB); assay: NCI one-dose SRB assay (Leukemia); assay type: cell-based, human; conditions: for Growth Percent: 1.00E-5 Molar; for inhibition at 10 µM: Homo sapiens, read-out: Percentage growth inhibition (GI%)
How it was run: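 Tested once at 10^−5 M over 48 h. SRB protein staining measured growth. GI% values.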

[3] = test system: MOLT-4; assay: NCI one-dose SRB assay (Leukemia); assay type: cell-based, human; conditions: for Growth Percent: MOLT-4, 1.00E-5 Molar; for inhibition at 10 µM: Homo sapiens, read-out: Percentage growth inhibition (GI%)
How it was run: as §1

[4] = test system: DU-145; assay: NCI one-dose SRB assay (Prostate); assay type: cell-based, human; conditions: for Growth Percent: DU-145, 1.00E-5 Molar; for inhibition at 10 µM: Homo sapiens, read-out: Percentage growth inhibition (GI%)
Method: (§2) The structures of all the newly prepared pyridine-ureas 8a–n were submitted to the National Cancer Institute (NCI) Developmental Therapeutic Program. Eight compounds 8b, 8d, 8e, 8i, 8j and 8l–n were selected to be examined for their in vitro growth inhibitory activity. The anticancer assays were carried out according to the protocol of the Drug Evaluation Branch, NCI, Bethesda. The selected pyridine-ureas were tested at one dose primary anticancer assay against a panel of approximately 58 cancer lines (concentration 10^−5 M). The tested human cancer cell lines emerged from nine different cancer subtypes: leukemia, colon, melanoma, ovarian, lung, CNS, renal, breast and prostate cancers. The sulforhodamine B (SRB) protein assay was adopted to estimate the cell viability and growth. The results were reported as mean-graph of the percentage growth of the treated cells, and presented as percentage growth inhibition (GI%) caused by the test compounds (Table 2).
(§3) The anticancer assays were performed in accordance with the protocol of the Drug Evaluation Branch, NCI, Bethesda. A 48 h drug exposure protocol was used and sulforhodamine B (SRB) protein assay was applied to estimate the cell viability and growth, as reported earlier.

[5] = test system: PC-3; assay: NCI one-dose SRB assay (Prostate); assay type: cell-based, human; conditions: for Growth Percent: PC-3, 1.00E-5 Molar; for inhibition at 10 µM: Homo sapiens, read-out: Percentage growth inhibition (GI%)
Method: as §2, §3

[6] = test system: breast cancer MCF-7 cell line; assay: In vitro anti-proliferative activity, MTT assay; assay type: cell-based, human; conditions: MCF-7, MTT
Method: The in vitro anti-proliferative activity of the newly prepared pyridine-ureas 8a–n was examined against breast cancer MCF-7 cell line. The assay was carried out, as triplicates, utilizing the 3-(4,5-dimethylthiazol-2-yl)-2,5-diphenyltetrazolium bromide (MTT) colorimetric assay as described by T. Mosmann. Doxorubicin and Sorafenib were included in this assay as a reference drug.
(§4) MCF-7 (human breast cancer cell line) and WI-38 (human lung fibroblast cell line), were obtained from American Type Culture Collection (Manassas, VA, USA). The cells were propagated in DMEM and supplemented with 10% heat-inactivated FBS (Hyclone), 10 μg/mL of insulin (Manufacturer, Sigma, St. Louis, MO, USA), and 1% penicillin-streptomycin. MTT assay was utilized to examine the in vitro anti-proliferative activity of the newly prepared ureas following the reported procedures. […] The data presented are the mean of at least three separate experiments.

[7] = test system: non-tumorigenic human lung fibroblast WI-38 cell line; assay: Cytotoxic activity against non-tumorigenic cells, MTT assay; assay type: cell-based; conditions: WI-38, MTT
Method: The cytotoxic activity of compounds 8b and 8e were evaluated against non-tumorigenic human lung fibroblast WI-38 cell line utilizing the MTT colorimetric assay developed by T. Mosmann (Table 3).
as §4

[8] = target: VEGFR-2 (Homo sapiens, UniProt P35968); assay: VEGFR-2 inhibitory assay (Alpha Screen, anti-phosphotyrosine antibody)
[9] = 48 h of incubation, read-out: IC50 48 h
[10] = Homo sapiens, MCF7, 48 h, 48 h of incubation, read-out: IC50 48 h
[11] = Homo sapiens, MCF7, 72 h, 72 h of incubation, read-out: IC50 72 h

Chain of VEGFR-2 (P35968 20-1356, species assumed): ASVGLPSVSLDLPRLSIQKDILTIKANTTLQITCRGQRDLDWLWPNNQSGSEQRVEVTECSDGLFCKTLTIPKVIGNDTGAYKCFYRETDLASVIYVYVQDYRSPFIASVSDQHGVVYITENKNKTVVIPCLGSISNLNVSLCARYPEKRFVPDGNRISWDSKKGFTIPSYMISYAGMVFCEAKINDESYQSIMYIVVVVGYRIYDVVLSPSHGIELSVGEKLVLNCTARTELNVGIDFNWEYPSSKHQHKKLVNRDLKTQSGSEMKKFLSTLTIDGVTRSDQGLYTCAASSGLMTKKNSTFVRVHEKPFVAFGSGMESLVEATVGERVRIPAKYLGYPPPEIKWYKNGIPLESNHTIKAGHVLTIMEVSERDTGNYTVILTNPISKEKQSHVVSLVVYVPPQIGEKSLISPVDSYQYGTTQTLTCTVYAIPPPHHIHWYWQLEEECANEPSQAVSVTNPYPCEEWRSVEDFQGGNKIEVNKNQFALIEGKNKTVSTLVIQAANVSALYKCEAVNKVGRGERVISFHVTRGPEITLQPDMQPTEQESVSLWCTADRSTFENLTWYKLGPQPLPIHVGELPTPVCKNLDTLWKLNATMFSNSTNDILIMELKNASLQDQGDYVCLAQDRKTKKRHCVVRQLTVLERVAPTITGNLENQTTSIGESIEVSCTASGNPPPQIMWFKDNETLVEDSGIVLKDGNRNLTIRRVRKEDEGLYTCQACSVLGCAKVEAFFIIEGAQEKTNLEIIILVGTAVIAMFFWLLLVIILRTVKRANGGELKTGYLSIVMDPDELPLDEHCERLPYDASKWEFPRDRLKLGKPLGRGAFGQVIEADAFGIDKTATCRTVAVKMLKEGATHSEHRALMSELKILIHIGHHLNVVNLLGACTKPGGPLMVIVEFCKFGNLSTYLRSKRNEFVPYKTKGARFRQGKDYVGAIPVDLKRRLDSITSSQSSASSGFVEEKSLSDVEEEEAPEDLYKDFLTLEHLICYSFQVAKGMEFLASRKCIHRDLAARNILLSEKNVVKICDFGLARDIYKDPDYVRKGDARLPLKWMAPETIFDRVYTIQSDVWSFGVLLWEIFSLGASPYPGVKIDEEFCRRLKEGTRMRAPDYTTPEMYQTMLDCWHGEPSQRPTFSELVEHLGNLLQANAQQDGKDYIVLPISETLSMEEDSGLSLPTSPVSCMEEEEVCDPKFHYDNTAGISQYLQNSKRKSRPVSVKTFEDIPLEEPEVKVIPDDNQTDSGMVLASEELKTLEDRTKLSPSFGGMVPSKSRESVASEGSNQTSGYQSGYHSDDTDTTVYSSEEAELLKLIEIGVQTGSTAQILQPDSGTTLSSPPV

| Compound | Growth Percent [1] [%] | Growth Percent [2] [%] | Growth Percent [3] [%] | Growth Percent [4] [%] | Growth Percent [5] [%] | inhibition at 10 µM ([1]; RPMI-8226, 10 μM) [%] | inhibition at 10 µM ([2]; 10 μM) [%] | inhibition at 10 µM ([3]; MOLT-4, 10 μM) [%] | inhibition at 10 µM ([4]; DU-145, 10 μM) [%] | inhibition at 10 µM ([5]; PC-3, 10 μM) [%] | IC50 [6, 10] [µM] | IC50 [6, 11] [µM] | other results |
| --- | --- | --- | --- | --- | --- | --- | --- | --- | --- | --- | --- | --- | --- |
| 1-(4-Chloro-4-(trifluoromethyl)cyclohexa-2,5-dien-1-yl)-3-(6-(3,4-dimethoxyphenyl)-2-methylpyridin-3-yl)urea [Compound 8l] | 43.88 | 52.58 | 43.68 | 80.60 | 33.54 |  |  |  |  |  |  |  | Percentage growth inhibition (GI%) ([1]; RPMI-8226, 10 μM): 57%; Percentage growth inhibition (GI%) ([2]; 10 μM): 48%; Percentage growth inhibition (GI%) ([3]; MOLT-4, 10 μM): 57%; Percentage growth inhibition (GI%) ([4]; DU-145, 10 μM): 20%; Percentage growth inhibition (GI%) ([5]; PC-3, 10 μM): 67%; IC50 [6, 9]: 7.03 ± 0.61 µM; IC50 ([6]; 72 h of incubation, read-out: IC50 72 h): 21.4 ± 2.03 µM |
| COc1ccc(-c2ccc(NC(=O)Nc3cccc(C(F)(F)F)c3)c(C)n2)cc1 [Compound 8b, 1-(6-(4-Methoxyphenyl)-2-methylpyridin-3-yl)-3-(3-(trifluoromethyl)phenyl) Urea] | 22.58 | 49.75 | 33.74 | 68.79 | 24.40 | 78 | 51 | 67 | 32 | 76 | 5.66 ± 0.45 | 5.03 ± 0.29 | IC50 [7]: 91.5 ± 4.53 µM; IC50 [8]: 5 ± 1.91 µM |
| COc1ccc(-c2ccc(NC(=O)Nc3ccc(Cl)cc3)c(C)n2)cc1 [Compound 8d, 1-(4-Chlorophenyl)-3-(6-(4-methoxyphenyl)-2-methylpyridin-3-yl) Urea] | 90.15 | 79.74 | 72.42 | 98.63 | 76.01 | 10 | 21 | 28 | < 10 | 24 | 7.1 ± 0.38 | 5.14 ± 0.46 |  |
| COc1ccc(-c2ccc(NC(=O)Nc3ccc(Cl)c(C(F)(F)F)c3)c(C)n2)cc1 [Compound 8e, 1-(4-Chloro-3-(trifluoromethyl)phenyl)-3-(6-(4-methoxyphenyl)-2-methylpyridin-3-yl)urea] | 9.87 | 32.27 | 24.60 | 54.52 | 14.67 | 91 | 68 | 76 | 46 | 86 | 0.22 ± 0.02 | 0.11 ± 0.1 | IC50 [7]: 83.1 ± 5.21 µM; IC50 [8]: 3.93 ± 0.73 µM |
| COc1ccc(-c2ccc(NC(=O)Nc3cccc(C(F)(F)F)c3)c(C)n2)cc1OC [Compound 8i, 1-(6-(3,4-Dimethoxyphenyl)-2-methylpyridin-3-yl)-3-(3-(trifluoromethyl)phenyl) Urea] | 34.61 | 61.08 | 39.58 | 82.57 | 27.45 | 66 | 39 | 61 | 18 | 73 | 6.19 ± 0.54 | 5.8 ± 0.34 |  |
| COc1ccc(-c2ccc(NC(=O)Nc3cccc(Cl)c3)c(C)n2)cc1OC [Compound 8j, 1-(3-Chlorophenyl)-3-(6-(3,4-dimethoxyphenyl)-2-methylpyridin-3-yl) Urea] | 51.32 | 63.92 | 42.64 | 101.79 | 39.30 | 49 | 37 | 58 | < 10 | 61 | 10.1 | 26.2 ± 2.17 | IC50 [6, 9]: 10.9 ± 1.03 µM |
| COc1cccc(NC(=O)Nc2ccc(-c3ccc(OC)c(OC)c3)nc2C)c1 [Compound 8m, 1-(6-(3,4-Dimethoxyphenyl)-2-methylpyridin-3-yl)-3-(3-methoxyphenyl) Urea] | 74.18 | 73.33 | 65.34 | 99.53 | 59.08 | 26 | 27 | 35 | < 10 | 41 | 23 ± 1.91 | 13.1 ± 1.12 |  |
| COc1ccc(NC(=O)Nc2ccc(-c3ccc(OC)c(OC)c3)nc2C)cc1 [Compound 8n, 1-(6-(3,4-Dimethoxyphenyl)-2-methylpyridin-3-yl)-3-(4-methoxyphenyl) Urea] | 83.77 | 85.74 | 85.62 | 72.24 | 81.42 | 17 | 15 | 15 | 28 | 19 | 1.88 ± 0.12 | 0.8 ± 0.07 |  |
